Measurements from ChEMBL document CHEMBL1154822, “Synthesis and antiproliferative activity of 7-azaindirubin-3'-oxime, a 7-aza isostere of the natural indirubin pharmacophore” (J Nat Prod, 2009).

Experiments:
PC-3 [1] = assay: Cytotoxicity against human PC3 cells assessed as cell growth at 10 uM after 1 to 11 days by MTT assay; assay type: functional; details: read-out: Activity
SN12C [2] = assay: Cytotoxicity against human SN12C cells assessed as cell growth at 0.1 uM after 1 to 11 days by MTT assay; assay type: functional; details: read-out: Activity
MDA-MB-231 [3] = assay: Cytotoxicity against human MDA-MB-231 cells assessed as cell growth at 0.1 uM after 1 to 11 days by MTT assay; assay type: functional; details: read-out: Activity
A498 [4] = assay: Cytotoxicity against human A498 cells assessed as cell growth at 0.1 uM after 1 to 11 days by MTT assay; assay type: functional; details: read-out: Activity
NCI-H23 = assay: Cytotoxicity against human NCI-H23 cells after 1 to 11 days by MTT assay; assay type: functional
OVCAR-8 = assay: Cytotoxicity against human OVCAR8 cells assessed as cell growth at 1 uM after 1 to 11 days by MTT assay; assay type: functional; details: read-out: Activity
[5] = Cytotoxicity against human Hs 578T cells assessed as cell growth at 1 uM after 1 to 11 days by MTT assay; assay type: functional; details: read-out: Activity
DU-145 = assay: Cytotoxicity against human DU145 cells assessed as cell growth at 1 mM after 1 to 11 days by MTT assay; assay type: functional; details: read-out: Activity
RXF 393 [6] = assay: Cytotoxicity against human […] cells after 1 to 11 days by MTT assay; assay type: functional
PC-3 [7] = assay: Cytotoxicity against human PC3 cells assessed as cell growth at 100 uM after 1 to 11 days by MTT assay; assay type: functional; details: read-out: Activity
SF-539 = assay: Cytotoxicity against human SF539 cells assessed as cell growth at 100 uM after 1 to 11 days by MTT assay; assay type: functional; details: read-out: Activity
OVCAR-4 [8] = assay: Cytotoxicity against human OVCAR4 cells assessed as cell growth at 1 uM after 1 to 11 days by MTT assay; assay type: functional; details: read-out: Activity
SNB-75 [9] = assay: Cytotoxicity against human SNB75 cells assessed as cell growth at 10 uM after 1 to 11 days by MTT assay; assay type: functional; details: read-out: Activity
OVCAR-5 = assay: Cytotoxicity against human OVCAR5 cells after 1 to 11 days by MTT assay; assay type: functional
LOX IMVI = assay: Cytotoxicity against human LOXIMVI cells after 1 to 11 days by MTT assay; assay type: functional
UACC-257 [10] = assay: Cytotoxicity against human UACC257 cells assessed as cell growth at 1 uM after 1 to 11 days by MTT assay; assay type: functional; details: read-out: Activity
MDA-MB-468 = assay: Cytotoxicity against human MDA-MB-468 cells assessed as cell growth at 0.1 uM after 1 to 11 days by MTT assay; assay type: functional; details: read-out: Activity
RXF 393 [11] = assay: Cytotoxicity against human […] cells assessed as cell growth at 1 uM after 1 to 11 days by MTT assay; assay type: functional; details: read-out: Activity
HOP-62 [12] = assay: Cytotoxicity against human HOP62 cells assessed as cell growth at 0.1 uM after 1 to 11 days by MTT assay; assay type: functional; details: read-out: Activity
U-251 = assay: Cytotoxicity against human U251 cells assessed as cell growth at 0.1 uM after 1 to 11 days by MTT assay; assay type: functional; details: read-out: Activity
MCF7 = assay: Cytotoxicity against human MCF7 cells assessed as cell growth at 0.1 uM after 1 to 11 days by MTT assay; assay type: functional; details: read-out: Activity
ACHN = assay: Cytotoxicity against human ACHN cells after 1 to 11 days by MTT assay; assay type: functional
SNB-19 = assay: Cytotoxicity against human SNB19 cells assessed as cell growth at 1 mM after 1 to 11 days by MTT assay; assay type: functional; details: read-out: Activity
HCC 2998 = assay: Cytotoxicity against human HCC2998 cells assessed as cell growth at 1 mM after 1 to 11 days by MTT assay; assay type: functional; details: read-out: Activity
NCI-H322M = assay: Cytotoxicity against human NCI-H322M cells assessed as cell growth at 10 uM after 1 to 11 days by MTT assay; assay type: functional; details: read-out: Activity
SN12C [13] = assay: Cytotoxicity against human SN12C cells after 1 to 11 days by MTT assay; assay type: functional
CCRF-CEM = assay: Cytotoxicity against human CCRF-CEM cells assessed as cell growth at 0.1 uM after 1 to 11 days by MTT assay; assay type: functional; details: read-out: Activity
MDA-MB-231 [14] = assay: Cytotoxicity against human MDA-MB-231 cells after 1 to 11 days by MTT assay; assay type: functional
IGROV-1 = assay: Cytotoxicity against human IGROV1 cells assessed as cell growth at 100 uM after 1 to 11 days by MTT assay; assay type: functional; details: read-out: Activity
OVCAR-4 [15] = assay: Cytotoxicity against human OVCAR4 cells assessed as cell growth at 0.1 uM after 1 to 11 days by MTT assay; assay type: functional; details: read-out: Activity
K562 = assay: Cytotoxicity against human K562 cells assessed as cell growth at 1 uM after 1 to 11 days by MTT assay; assay type: functional; details: read-out: Activity
TK-10 = assay: Cytotoxicity against human TK10 cells assessed as cell growth at 10 uM after 1 to 11 days by MTT assay; assay type: functional; details: read-out: Activity
SK-MEL-5 = assay: Cytotoxicity against human SK-MEL-5 cells assessed as cell growth at 1 mM after 1 to 11 days by MTT assay; assay type: functional; details: read-out: Activity
SW-620 [16] = assay: Cytotoxicity against human SW620 cells assessed as cell growth at 10 uM after 1 to 11 days by MTT assay; assay type: functional; details: read-out: Activity
HOP-62 [17] = assay: Cytotoxicity against human HOP62 cells assessed as cell growth at 10 uM after 1 to 11 days by MTT assay; assay type: functional; details: read-out: Activity
SK-OV-3 = assay: Cytotoxicity against human SKOV3 cells assessed as cell growth at 1 uM after 1 to 11 days by MTT assay; assay type: functional; details: read-out: Activity
A498 [18] = assay: Cytotoxicity against human A498 cells assessed as cell growth at 1 mM after 1 to 11 days by MTT assay; assay type: functional; details: read-out: Activity
SNB-75 [19] = assay: Cytotoxicity against human SNB75 cells assessed as cell growth at 100 uM after 1 to 11 days by MTT assay; assay type: functional; details: read-out: Activity
UACC-257 [20] = assay: Cytotoxicity against human UACC257 cells assessed as cell growth at 10 uM after 1 to 11 days by MTT assay; assay type: functional; details: read-out: Activity
OVCAR-4 [21] = assay: Cytotoxicity against human OVCAR4 cells assessed as cell growth at 100 uM after 1 to 11 days by MTT assay; assay type: functional; details: read-out: Activity
[22] = biological target: Glycogen synthase kinase-3 beta (Homo sapiens) (UniProt P49841); assay: Inhibition of human GSK3-beta assessed as residual enzyme activity at 3 uM after 40 mins by scintillation counting
Chain of Glycogen synthase kinase-3 beta (Homo sapiens) (P49841 whole entry, looked up): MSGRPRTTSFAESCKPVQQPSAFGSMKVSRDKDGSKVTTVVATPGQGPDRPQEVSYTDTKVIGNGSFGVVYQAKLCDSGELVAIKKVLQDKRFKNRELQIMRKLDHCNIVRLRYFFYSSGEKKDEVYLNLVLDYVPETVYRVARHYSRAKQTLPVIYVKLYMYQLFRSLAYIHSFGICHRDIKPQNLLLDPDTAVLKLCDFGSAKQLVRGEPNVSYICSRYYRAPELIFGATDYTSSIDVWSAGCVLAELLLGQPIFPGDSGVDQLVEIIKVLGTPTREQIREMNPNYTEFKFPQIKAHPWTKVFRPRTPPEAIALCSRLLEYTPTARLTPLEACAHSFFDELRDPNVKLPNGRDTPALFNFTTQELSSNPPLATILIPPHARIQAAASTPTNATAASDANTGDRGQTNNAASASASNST

MOLT-4 = assay: Cytotoxicity against human MOLT4 cells after 1 to 11 days by MTT assay; assay type: functional
SW-620 [23] = assay: Cytotoxicity against human SW620 cells assessed as cell growth at 100 uM after 1 to 11 days by MTT assay; assay type: functional; details: read-out: Activity
[24] = read-out: LC50 (the source's name)

O=C1Nc2ncccc2/C1=C1/Nc2ccccc2/C1=N\O
growth at 10 µM (PC-3 [1]): 82%
growth at 0.1 µM (SN12C [2]): 93%
growth at 0.1 µM (MDA-MB-231 [3]): 99%
growth at 0.1 µM (A498 [4]): 76%
GI50 (NCI-H23): > 100 µM
TGI (NCI-H23): > 100 µM
CC50 (NCI-H23; [24]): > 100 µM
growth at 1 µM (OVCAR-8): 85%
growth at 1 µM [5]: 98%
growth at 1000 µM (DU-145): 35%
GI50 (RXF 393 [6]): 1.22 µM
TGI (RXF 393 [6]): > 100 µM
CC50 (RXF 393 [6]; [24]): > 100 µM
growth at 100 µM (PC-3 [7]): 44%
growth at 100 µM (SF-539): 60%
growth at 1 µM (OVCAR-4 [8]): 97%
growth at 10 µM (SNB-75 [9]): 86%
GI50 (OVCAR-5): 93.9 µM
TGI (OVCAR-5): > 100 µM
CC50 (OVCAR-5; [24]): > 100 µM
GI50 (LOX IMVI): 5.17 µM
TGI (LOX IMVI): > 100 µM
CC50 (LOX IMVI; [24]): > 100 µM
growth at 1 µM (UACC-257 [10]): 92%
growth at 0.1 µM (MDA-MB-468): 77%
growth at 1 µM (RXF 393 [11]): 94%
growth at 0.1 µM (HOP-62 [12]): 102%
growth at 0.1 µM (U-251): 97%
growth at 0.1 µM (MCF7): 98%
GI50 (ACHN): 2.68 µM
TGI (ACHN): > 100 µM
CC50 (ACHN; [24]): > 100 µM
growth at 1000 µM (SNB-19): 83%
growth at 1000 µM (HCC 2998): 36%
growth at 10 µM (NCI-H322M): 56%
GI50 (SN12C [13]): 4.98 µM
TGI (SN12C [13]): > 100 µM
CC50 (SN12C [13]; [24]): > 100 µM
growth at 0.1 µM (CCRF-CEM): 94%
GI50 (MDA-MB-231 [14]): 5.28 µM
TGI (MDA-MB-231 [14]): > 100 µM
CC50 (MDA-MB-231 [14]; [24]): > 100 µM
growth at 100 µM (IGROV-1): 13%
growth at 0.1 µM (OVCAR-4 [15]): 94%
growth at 1 µM (K562): 76%
growth at 10 µM (TK-10): 91%
growth at 1000 µM (SK-MEL-5): 30%
growth at 10 µM (SW-620 [16]): 98%
growth at 10 µM (HOP-62 [17]): 105%
growth at 1 µM (SK-OV-3): 93%
growth at 1000 µM (A498 [18]): 43%
growth at 100 µM (SNB-75 [19]): 14%
growth at 10 µM (UACC-257 [20]): 114%
growth at 100 µM (OVCAR-4 [21]): 48%
Activity [22]: 18%
GI50 (MOLT-4): 2.99 µM
TGI (MOLT-4): > 100 µM
CC50 (MOLT-4; [24]): > 100 µM
growth at 100 µM (SW-620 [23]): 43%
